According to patent publication US10328054B2, “Substituted pyrrolidines as mGluR5 antagonists” (Hua Medicine (Shanghai) Ltd., priority 2015, dated 2019):

Molecular target: recombinant rat mGluR5 (Rattus norvegicus (Rat), UniProt P31424)
Test: Functional calcium flux assay (FLIPR)
Type: cell-based
Conditions: HEK293 cells stably expressing recombinant rat mGluR5; inhibition of glutamate-evoked [Ca2+]i increase, 15 min incubation of test compound
Description: For functional assays, HEK293 cells stably expressing recombinant rat mGluR5 were seeded in 384-well plates and dye loaded using Fluo-8. Cells were then washed to remove the un-incorporated dye. Antagonist evaluation was performed following a 15 min incubation of the test compound followed by the addition of submaximal concentration of glutamate. Intracellular calcium ([Ca^2+]i) measurements were performed using a fluorometric imaging plate reader (FLIPR, Molecular Devices). The glutamate-evoked increase in [Ca^2+]i in the presence of the test compounds was compared to the response to glutamate alone (the positive control). Antagonist inhibition curves were fitted with a 4-parameter logistic equation giving IC50 values, and Hill coefficients using an iterative nonlinear curve fitting algorithm.
The tables below provide IC50 data in this assay. In the activity column, A=IC50>1,000 and <5,000 nM; B=IC50>500 and <1,000 nM and C=IC50<500 nM.

Sequence of recombinant rat mGluR5 (P31424 21-1203): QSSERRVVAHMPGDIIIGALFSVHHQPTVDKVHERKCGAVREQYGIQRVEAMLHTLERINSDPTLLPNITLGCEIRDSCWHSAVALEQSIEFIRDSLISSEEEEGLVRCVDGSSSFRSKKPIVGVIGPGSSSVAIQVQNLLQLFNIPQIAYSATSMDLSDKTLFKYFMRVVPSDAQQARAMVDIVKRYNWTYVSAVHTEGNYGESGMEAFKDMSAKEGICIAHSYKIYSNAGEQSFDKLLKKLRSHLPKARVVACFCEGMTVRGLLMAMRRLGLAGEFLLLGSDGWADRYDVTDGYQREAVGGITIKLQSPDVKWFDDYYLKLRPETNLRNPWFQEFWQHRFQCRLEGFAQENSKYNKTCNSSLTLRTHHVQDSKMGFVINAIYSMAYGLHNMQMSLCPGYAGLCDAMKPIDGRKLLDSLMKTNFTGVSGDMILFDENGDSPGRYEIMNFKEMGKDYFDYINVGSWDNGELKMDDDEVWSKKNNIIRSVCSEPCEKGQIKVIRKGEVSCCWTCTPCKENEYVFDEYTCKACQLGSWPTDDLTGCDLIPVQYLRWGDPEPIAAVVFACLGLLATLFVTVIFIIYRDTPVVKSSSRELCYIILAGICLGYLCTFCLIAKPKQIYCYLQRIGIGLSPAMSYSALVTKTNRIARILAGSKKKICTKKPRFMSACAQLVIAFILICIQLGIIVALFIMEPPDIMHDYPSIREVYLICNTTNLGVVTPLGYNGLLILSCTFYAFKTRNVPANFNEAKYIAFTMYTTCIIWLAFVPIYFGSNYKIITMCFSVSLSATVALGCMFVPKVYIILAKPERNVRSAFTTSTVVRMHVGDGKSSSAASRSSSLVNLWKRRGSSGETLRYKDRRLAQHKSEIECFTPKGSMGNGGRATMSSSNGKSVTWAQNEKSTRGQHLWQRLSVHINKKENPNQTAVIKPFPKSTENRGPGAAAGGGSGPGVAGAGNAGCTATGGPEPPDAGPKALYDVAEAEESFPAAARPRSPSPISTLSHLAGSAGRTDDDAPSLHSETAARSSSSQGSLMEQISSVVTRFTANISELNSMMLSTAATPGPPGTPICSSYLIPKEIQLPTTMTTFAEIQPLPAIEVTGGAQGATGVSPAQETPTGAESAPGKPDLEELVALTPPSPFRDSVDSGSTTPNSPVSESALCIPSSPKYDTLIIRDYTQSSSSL

SMILES | IC50
FC(F)(F)Oc1ccc(N2CC3CC3(C#Cc3ccccn3)C2)cc1 (stereo not shown) [Example Compound 3, 1-(pyridin-2-ylethynyl)-3-(4-(trifluoromethoxy)phenyl)-3-azabicyclo[3.1.0]hexane] | 1000 to 5000 nM
O=C(c1cccc(Cl)c1)N1CC2CC2(C#Cc2ncccn2)C1 (stereo not shown) [Example Compound 61, (3-chlorophenyl)-(1-(pyrimidin-2-ylethynyl)-3-azabicyclo[3.1.0]hexan-3-yl)methanone] | 500 to 1000 nM
C(#CC12CC1CN(c1ccc3[nH]ccc3n1)C2)c1ccccn1 (stereo not shown) [Example Compound 24, 5-(1-(pyridin-2-ylethynyl)-3-azabicyclo[3.1.0]hexan-3-yl)-1H-pyrrolo[3,2-b]pyridine] | 1000 to 5000 nM
O=C(c1cccc(Cl)c1)N1CC2CC2(C#Cc2ccccn2)C1 (stereo not shown) [Example Compound 26, (3-chlorophenyl)(1-(pyridin-2-ylethynyl)-3-azabicyclo[3.1.0]hexan-3-yl)methanone] | < 500 nM
Fc1ccc(N2CC3CC3(C#Cc3ccccn3)C2)nc1 (stereo not shown) [Example Compound 6, 3-(5-fluoropyridin-2-yl)-1-(pyridin-2-ylethynyl)-3-azabicyclo[3.1.0]hexane] | < 500 nM
O=C(Nc1ccccc1)N1CC2CC2(C#Cc2ccccn2)C1 (stereo not shown) [Example Compound 57, N-phenyl-1-(pyridin-2-ylethynyl)-3-azabicyclo[3.1.0]hexane-3-carboxamide] | 500 to 1000 nM
CC(C)(C)C(=O)N1C[C@H]2C[C@@]2(C#Cc2ccccn2)C1 [Example Compound 52, 2,2-dimethyl-1-((1R,5S)-1-(pyridin-2-ylethynyl)-3-azabicyclo[3.1.0]hexan-3-yl)propan-1-one] | < 500 nM
Fc1cc(N2CC3CC3(C#Cc3ccccn3)C2)ccc1Cl (stereo not shown) [Example Compound 22, 3-(4-chloro-3-fluorophenyl)-1-(pyridin-2-ylethynyl)-3-azabicyclo[3.1.0]hexane] | 500 to 1000 nM
Clc1ccc(N2CC3CC3(C#Cc3ccccn3)C2)cc1 (stereo not shown) [Example Compound 19, 3-(4-chlorophenyl)-1-(pyridin-2-ylethynyl)-3-azabicyclo[3.1.0]hexane] | 500 to 1000 nM
CCCCC(=O)N1CC2CC2(C#Cc2ccccn2)C1 (stereo not shown) [Example Compound 31, 1-(1-(pyridin-2-ylethynyl)-3-azabicyclo[3.1.0]hexan-3-yl)pentan-1-one] | < 500 nM
CC(C)C(=O)N1CC2CC2(C#Cc2cccc(Cl)n2)C1 (stereo not shown) [Example Compound 65, 1-(1-((6-chloropyridin-2-yl)ethynyl)-3-azabicyclo[3.1.0]hexan-3-yl)-2-methylpropan-1-one] | < 500 nM
Cc1cccc(C#CC23CC2CN(C(=O)C(C)C)C3)n1 (stereo not shown) [Example Compound 64, 2-methyl-1-(1-((6-methylpyridin-2-yl)ethynyl)-3-azabicyclo[3.1.0]hexan-3-yl)propan-1-one] | < 500 nM
O=C(c1ccccn1)N1CC2CC2(C#Cc2ccccn2)C1 (stereo not shown) [Example Compound 27, pyridin-2-yl(1-(pyridin-2-ylethynyl)-3-azabicyclo[3.1.0]hexan-3-yl)methanone] | < 500 nM
Fc1cncc(N2CC3CC3(C#Cc3ncccn3)C2)c1 (stereo not shown) [Example Compound 63, 3-(5-fluoropyridin-3-yl)-1-(pyrimidin-2-ylethynyl)-3-azabicyclo[3.1.0]hexane] | < 500 nM
C(#CC12CC1CN(c1ccc3[nH]cnc3c1)C2)c1ccccn1 (stereo not shown) [Example Compound 25, 5-(1-(pyridin-2-ylethynyl)-3-azabicyclo[3.1.0]hexan-3-yl)-1H-benzo[d]imidazole] | 1000 to 5000 nM
CCCCC(=O)N1CC2CC2(C#Cc2csc(C)n2)C1 (stereo not shown) [Example Compound 67, 1-(1-((2-mehylthyiazol-4-yl)ethynyl)-3-azabicyclo[3.1.0]hexan-3-yl)pentan-1-one] | < 500 nM
N#Cc1cccc(N2CC3CC3(C#Cc3ccccn3)C2)n1 (stereo not shown) [Example Compound 38, 6-(1-(pyridin-2-ylethynyl)-3-azabicyclo[3.1.0]hexan-3-yl)picolinonitrile] | < 500 nM
N#Cc1cc(F)cc(N2CC3CC3(C#Cc3cccnn3)C2)c1 (stereo not shown) [Example Compound 11, 3-fluoro-5-(1-(pyridazin-3-ylethynyl)-3-azabicyclo[3.1.0]hexan-3-yl)benzonitrile] | < 500 nM

Next, values leading:

IC50 | SMILES
< 500 nM | Fc1cc(F)cc(N2CC3CC3(C#Cc3ncccn3)C2)c1 (stereo not shown) [Example Compound 45, 3-(3,5-difluorophenyl)-1-(pyrimidin-2-ylethynyl)-3-azabicyclo[3.1.0]hexane]
< 500 nM | Clc1cccc(N2CC3CC3(C#Cc3ccccn3)C2)c1 (stereo not shown) [Example Compound 18, 3-(3-chlorophenyl)-1-(pyridin-2-ylethynyl)-3-azabicyclo[3.1.0]hexane]
< 500 nM | N#Cc1cc(F)cc(N2CC3CC3(C#Cc3ccccn3)C2)c1 (stereo not drawn) [Example Compound 1, 3-fluoro-S-(1-(pyridin-2-ylethynyl)-3-azabicyclo[3.1.0]hexan-3-yl) benzonitrile]
< 500 nM | O=C(c1cccc(F)c1)N1CC2CC2(C#Cc2ccccn2)C1 (stereo not shown) [Example Compound 41, (3-fluorophenyl)-(1-(pyridin-2-ylethynyl)-3-azabicyclo[3.1.0]hexan-3-yl)methanone]
< 500 nM | Fc1ccc(N2CC3CC3(C#Cc3ccccn3)C2)cc1 (stereo not shown) [Example Compound 2, 3-(4-fluorophenyl)-1-(pyridin-2-ylethynyl)-3-azabicyclo[3.1.0]hexane]
< 500 nM | O=C(c1ccccc1Cl)N1CC2CC2(C#Cc2ccccn2)C1 (stereo not shown) [Example Compound 30, (2-chlorophenyl) (1-(pyridin-2-ylethynyl)-3-azabicyclo[3.1.0]hexan-3-yl)methanone]
< 500 nM | Cc1nc(C#CC23CC2CN(c2cncc(F)c2)C3)cs1 (stereo not shown) [Example Compound 48, 4-((3-(S-fluoropyridin-3-yl)-3-azabicyclo[3.1.0]hexan-1-yl)ethynyl)-2-methylthiazole]
< 500 nM | Cc1nc(C#CC23CC2CN(c2cccc(C#N)c2)C3)cs1 (stereo not shown) [Example Compound 47, 3-(1-((2-methylthiazol-4-yl)ethynyl)-3-azabicyclo[3.1.0]hexan-3-yl)benzonitrile]
< 500 nM | Cc1cccc(C#CC23CC2CN(c2cc(F)cc(C#N)c2)C3)n1 (stereo not shown) [Example Compound 13, 3-fluoro-5-(1-((6-methylpyridin-2-yl)ethynyl)-3-azabicyclo[3.1.0]hexan-3-yl) benzonitrile]
< 500 nM | N#Cc1cc(F)cc(N2CC3CC3(C#Cc3ncccn3)C2)c1 (stereo not shown) [Example Compound 8, 3-fluoro-5-(1-(pyrimidin-2-ylethynyl)-3-azabicyclo[3.1.0]hexan-3-yl) benzonitrile]
< 500 nM | Fc1cncc(N2CC3CC3(C#Cc3ccccn3)C2)c1 (stereo not shown) [Example Compound 4]
< 500 nM | N#Cc1cncc(N2CC3CC3(C#Cc3ccccn3)C2)c1 (stereo not drawn) [Example Compound 50, S-(1-(pyridin-2-ylethynyl)-3-azabicyclo[3.1.0]hexan-3-yl)nicotinonitrile]
< 500 nM | O=C(c1ccccc1)N1CC2CC2(C#Cc2ccccn2)C1 (stereo not shown) [Example Compound 28, phenyl(1-(pyridin-2-ylethynyl) 3-azabicyclo[3.1.0]hexan-3-yl)methanone]
< 500 nM | O=C(c1cc(Cl)ccn1)N1CC2CC2(C#Cc2ccccn2)C1 (stereo not shown) [Example Compound 55, (4-chloropyridin-2-yl)-(1-(pyridin-2-ylethynyl)-3-azabicyclo[3.1.0]hexan-3-yl)methanone]
< 500 nM | O=C(CCc1ccccc1)N1CC2CC2(C#Cc2ccccn2)C1 (stereo not shown) [Example Compound 32, 3-phenyl-1-(1-(pyridin-2-ylethynyl)-3-azabicyclo[3.1.0]hexan-3-yl)propan-1-one]
< 500 nM | N#Cc1cccc(N2CC3CC3(C#Cc3ccccn3)C2)c1 (stereo not shown) [Example Compound 40, 3-(1-(pyridin-2-ylethynyl)-3-azabicyclo[3.1.0]hexan-3-yl)benzonitrile]
< 500 nM | CCCNC(=O)N1C[C@H]2C[C@@]2(C#Cc2ccccn2)C1 [Example Compound 58, (1R,5S)—N-propyl-1-(pyridin-2-ylethynyl)-3-azabicyclo[3.1.0]hexane-3-carboxamide]
< 500 nM | C(#CC12CC1CN(c1ccccc1)C2)c1ccccn1 (stereo not shown) [Example Compound 10, 3-phenyl-1-(pyridin-2-ylethynyl)-3-azabicyclo[3.1.0]hexane]
< 500 nM | O=C(NCC(F)(F)F)N1CC2CC2(C#Cc2ccccn2)C1 (stereo not shown) [Example Compound 60, 1-(pyridin-2-yl-ethynyl)-N-(2,2,2-trifluoroethyl)-3-azabicyclo[3.1.0]hexane-3-carboxamide]
< 500 nM | Cc1nc(C#CC23CC2CN(C(=O)c2ccccc2)C3)cs1 (stereo not shown) [Example Compound 66, (1-((2-methylthiazol-4-yl)ethynyl)-3-azabicyclo[3.1.0]hexan-3-yl)(phenyl)methanone]
< 500 nM | Clc1ccccc1N1CC2CC2(C#Cc2ccccn2)C1 (stereo not shown) [Example Compound 17, 3-(2-chlorophenyl)-1-(pyridin-2-ylethynyl)-3-azabicyclo[3.1.0]hexane]
< 500 nM | O=C(N1CCCC1)N1CC2CC2(C#Cc2ccccn2)C1 (stereo not shown) [Example Compound 59, (1-(pyridin-2-ylethynyl)-3-azabicyclo[3.1.0]hexan-3-yl)(pyrrolidin-1-yl)methanone]
